# Values of other authors as cited in patent US11925768B2, “Method for decolonizing mammalian skin” (AVADIM HEALTH IP, INC., priority 2014, dated 2024).
# Conditions: concentrations as low as
smiles,measurement,value
"O=S1(=O)CCN(CN2CCS(=O)(=O)NC2)CN1 [Taurolidine, taurolidine]",concentration producing intense pain in most tissues,about 10 mg/ml
